From US12534469B2 (CHILDREN'S HOSPITAL MEDICAL CENTER, priority 2020, dated 2026) come the findings set out here.

The structures appear in SMILES notation. Changes are numbered by the printed parent chain. Read-outs that look alike come from different tables or passages of the source.

Assay [1] has as its target T1, FLT3 D835Y (Homo sapiens, UniProt P36888, D835Y).
T1 construct: purchased DiscoverX (KINOMEscan); host or cells: E. coli (T7 phage) or HEK-293
T1 sequence (P36888 27-993 D835Y): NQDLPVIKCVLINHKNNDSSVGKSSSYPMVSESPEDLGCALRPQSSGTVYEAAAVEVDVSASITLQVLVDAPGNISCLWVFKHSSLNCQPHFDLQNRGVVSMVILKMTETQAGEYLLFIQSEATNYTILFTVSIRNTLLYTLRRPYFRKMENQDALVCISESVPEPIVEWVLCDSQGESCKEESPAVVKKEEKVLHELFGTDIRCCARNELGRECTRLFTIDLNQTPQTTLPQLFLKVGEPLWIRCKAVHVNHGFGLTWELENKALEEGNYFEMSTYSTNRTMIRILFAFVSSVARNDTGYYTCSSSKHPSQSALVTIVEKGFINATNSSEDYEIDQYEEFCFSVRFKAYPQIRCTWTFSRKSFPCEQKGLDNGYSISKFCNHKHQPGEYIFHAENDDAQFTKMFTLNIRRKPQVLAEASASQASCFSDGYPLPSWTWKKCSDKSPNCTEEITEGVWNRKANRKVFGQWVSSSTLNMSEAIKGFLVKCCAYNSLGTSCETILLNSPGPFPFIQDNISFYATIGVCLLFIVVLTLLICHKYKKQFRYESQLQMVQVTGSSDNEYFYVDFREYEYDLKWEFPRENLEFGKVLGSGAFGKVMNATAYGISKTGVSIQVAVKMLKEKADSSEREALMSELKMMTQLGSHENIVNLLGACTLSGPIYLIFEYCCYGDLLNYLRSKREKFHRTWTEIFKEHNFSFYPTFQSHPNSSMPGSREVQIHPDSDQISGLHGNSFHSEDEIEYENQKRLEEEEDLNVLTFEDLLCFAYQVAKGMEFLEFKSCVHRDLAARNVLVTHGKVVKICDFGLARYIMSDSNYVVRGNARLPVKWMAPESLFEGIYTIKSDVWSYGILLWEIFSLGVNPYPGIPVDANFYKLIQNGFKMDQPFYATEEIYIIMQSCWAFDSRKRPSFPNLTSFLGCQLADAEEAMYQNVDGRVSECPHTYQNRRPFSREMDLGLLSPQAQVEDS
The assay is described as follows: DiscoverX KINOMEscan competition binding assay, FLT3 D835Y. The source says: (§1) Kinase binding data were obtained for various exemplary compounds prepared according to Examples 1-25 using the DiscoverX KINOMEscan® active site-directed competition binding site-directed assay protocol described below. […] As a result, the data report thermodynamic interaction affinities (Kd values), rather than IC50 values that are dependent on ATP concentrations. The assay uses a DNA-tagged version of the protein kinase, and an immobilized ligand bound to a solid support. Compounds that directly or indirectly prevent kinase binding to the immobilized ligand reduce the amount of kinase captured on the solid support, which is detected using an ultra-sensitive qPCR method. Affinity constants reported from the assay have been reported to be independent of the immobilized ligand used that is coupled to the solid support (See supplemental information in Fabian, M. A. et. al., (2005) Nat. Biotechnol. 23, 329-336; Wodicka, L. M. et. al., (2010) Chem. Biol. 17, 1241-1249.)
(§2) Kinase-tagged T7 phage strains were prepared in an E. coli host derived from the BL21 strain. E. coli were grown to log-phase and infected with T7 phage and incubated with shaking at 32° C. until lysis. The lysates were centrifuged and filtered to remove cell debris. The remaining kinases were produced in HEK-293 cells and subsequently tagged with DNA for qPCR detection. […] The liganded beads were blocked with excess biotin and washed with blocking buffer (SeaBlock (Pierce), 1% BSA, 0.05% Tween 20, 1 mM DTT) to remove unbound ligand and to reduce non-specific binding. […] Test compounds were prepared as 111× stocks in 100% DMSO. Kds were determined using an 11-point 3-fold compound dilution series with three DMSO control points. […] The compounds were then diluted directly into the assays such that the final concentration of DMSO was 0.9%. All reactions were performed in polypropylene 384-well plates. Each was a final volume of 0.02 mL. […] The kinase concentration in the eluates was measured by qPCR.
(§3) Binding constants (Kds) were calculated with a standard dose-response curve using the Hill equation. […]

The target in assay [2] is T2, FLT3 ITD, F691L (Homo sapiens, UniProt P36888, F691L/ITD).
T2 sequence (P36888 564-993 F691L): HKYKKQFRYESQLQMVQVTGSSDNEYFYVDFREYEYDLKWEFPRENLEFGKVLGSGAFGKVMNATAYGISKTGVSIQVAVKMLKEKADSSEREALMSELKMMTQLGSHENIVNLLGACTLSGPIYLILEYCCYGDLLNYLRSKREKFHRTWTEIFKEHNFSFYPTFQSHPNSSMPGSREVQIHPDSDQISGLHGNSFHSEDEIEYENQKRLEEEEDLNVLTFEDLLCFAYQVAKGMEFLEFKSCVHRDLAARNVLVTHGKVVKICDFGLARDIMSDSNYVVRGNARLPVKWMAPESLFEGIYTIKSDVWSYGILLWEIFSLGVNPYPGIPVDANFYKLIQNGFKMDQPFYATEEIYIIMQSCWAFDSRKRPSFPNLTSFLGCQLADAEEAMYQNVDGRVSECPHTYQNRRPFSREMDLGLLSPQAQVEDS
The assay is described as follows: DiscoverX KINOMEscan competition binding assay, FLT3 ITD, F691L.
Text: as §1, §2, §3

Assay [3] concerns the target T3, FLT3 Autoinh. (Homo sapiens, UniProt P36888).
T3 construct: purchased DiscoverX (KINOMEscan); host or cells: E. coli (T7 phage) or HEK-293
T3 sequence (P36888 564-993 limits assumed): T2 sequence (P36888 564-993 F691L) with L128F
The assay is described as follows: DiscoverX KINOMEscan competition binding assay, FLT3 Autoinh.
Text: as §1, §2, §3

On to `COc1cc2ncc(-c3cccc(N[C@@H]4CCNC4)n3)n2nc1C1CC1` [Compound 97, (R)-6-(6-cyclopropyl-7-methoxyimidazo[1,2-b]pyridazin-3-yl)-N-(pyrrolidin-3-yl)pyridin-2-amine], for which the Kd (in general, the equilibrium constant for the complex coming apart) in assay [1] turned out to be 0.063 nM; in assay [2] (read-out: FLT3 ITD, F691L Kd), 0.19 nM; in assay [3] it was 13 nM.

With `COc1cc2ncc(-c3cccc(N[C@H]4CNCC[C@@H]4F)n3)n2nc1C1CC1` [Compound 102, 6-(6-cyclopropyl-7-methoxyimidazo[1,2-b]pyridazin-3-yl)-N-((3S,4S)-4-fluoropiperidin-3-yl)pyridin-2-amine], the Kd in assay [1] stood at 0.16 nM; in assay [2] (read-out: FLT3 ITD, F691L Kd), 0.14 nM; in assay [3], 17 nM.

With `COc1cc2ncc(-c3cccc(N[C@H]4CNC[C@@H]4F)n3)n2nc1C1CC1` [Compound 96, 6-(6-cyclopropyl-7-methoxyimidazo[1,2-b]pyridazin-3-yl)-N-((3S,4S)-4-fluoropyrrolidin-3-yl)pyridin-2-amine], the values for the Kd in assay [1], in assay [2] and in assay [3] were 0.46 nM, 0.37 nM and 11 nM, respectively.
